Measurements from patent US11272709B2, “Amidine substituted benzoyl derivatives useful as herbicides” (Syngenta Participations AG, priority 2018, dated 2022).

Key:
Format in all cases: in vivo
Conditions in all cases: evaluated after 13 days
[1] = system: Amaranthus retoflexus (AMARE); experiment: Pre-emergence herbicidal glasshouse test, Amaranthus retoflexus (AMARE)
Method: (§1) Seeds of a variety of test species are sown in standard soil in pots (Lolium perenne (LOLPE), Amaranthus retoflexus (AMARE), Abutilon theophrasti (ABUTH), Setaria faberi (SETFA), Echinochloa crus-galli (ECHCG), Ipomoea hederacea (IPOHE)). After cultivation for one day (pre-emergence) or after 8 days cultivation (post-emergence) under controlled conditions in a glasshouse (at 24/16° C., day/night; 14 hours light; 65% humidity), the plants are sprayed with an aqueous spray solution derived from the formulation of the technical active ingredient in acetone/water (50:50) solution containing 0.5% Tween 20 (polyoxyethelyene sorbitan monolaurate, CAS RN 9005-64-5). Compounds are applied at 500 g/h unless otherwise indicated. The test plants are then grown in a glasshouse under controlled conditions in a glasshouse (at 24/16° C., day/night; 14 hours light; 65% humidity) and watered twice daily. After 13 days for pre and post-emergence, the test is evaluated for the percentage damage caused to the plant. The biological activities are shown in the following table on a five point scale (5=80-100%; 4=60-79%; 3=40-59%; 2=20-39%; 1=0-19%).

[2] = system: Abutilon theophrasti (ABUTH); experiment: Pre-emergence herbicidal glasshouse test, Abutilon theophrasti (ABUTH)
Method: as §1

Setaria faberi (SETFA) [3] = experiment: Pre-emergence herbicidal glasshouse test, Setaria faberi (SETFA)
Method: as §1

[4] = system: Echinochloa crus-galli (ECHCG); experiment: Pre-emergence herbicidal glasshouse test, Echinochloa crus-galli (ECHCG)
Method: as §1

[5] = system: Ipomoea hederacea (IPOHE); experiment: Pre-emergence herbicidal glasshouse test, Ipomoea hederacea (IPOHE)
Method: as §1

[6] = system: Amaranthus retoflexus (AMARE); experiment: Post-emergence herbicidal glasshouse test, Amaranthus retoflexus (AMARE)
Method: as §1

[7] = system: Abutilon theophrasti (ABUTH); experiment: Post-emergence herbicidal glasshouse test, Abutilon theophrasti (ABUTH)
Method: as §1

Setaria faberi (SETFA) [8] = experiment: Post-emergence herbicidal glasshouse test, Setaria faberi (SETFA)
Method: as §1

[9] = system: Echinochloa crus-galli (ECHCG); experiment: Post-emergence herbicidal glasshouse test, Echinochloa crus-galli (ECHCG)
Method: as §1

[10] = system: Ipomoea hederacea (IPOHE); experiment: Post-emergence herbicidal glasshouse test, Ipomoea hederacea (IPOHE)
Method: as §1

CCN(C=Nc1c(C(F)(F)F)ccc(C(=O)Nc2nnnn2C)c1Cl)CC [Compound 1.055]
5 (5=80-100%): PRE Application AMARE, percentage damage (five point scale) ([1]; 500 g/h) | PRE Application ABUTH, percentage damage (five point scale) ([2]; 500 g/h) | PRE Application SETFA, percentage damage (five point scale) (Setaria faberi (SETFA) [3]; 500 g/h) | PRE Application ECHCG, percentage damage (five point scale) ([4]; 500 g/h) | PRE Application IPOHE, percentage damage (five point scale) ([5]; 500 g/h) | POST Application AMARE, percentage damage (five point scale) ([6]; 500 g/h) | POST Application ABUTH, percentage damage (five point scale) ([7]; 500 g/h) | POST Application SETFA, percentage damage (five point scale) (Setaria faberi (SETFA) [8]; 500 g/h) | POST Application ECHCG, percentage damage (five point scale) ([9]; 500 g/h) | POST Application IPOHE, percentage damage (five point scale) ([10]; 500 g/h)

CN(C)C=Nc1c(S(C)(=O)=O)ccc(C(=O)Nc2nnnn2C)c1Cl [Compound 1.057]
5 (5=80-100%): PRE Application AMARE, percentage damage (five point scale) ([1]; applied at 125 g/ha) | PRE Application ABUTH, percentage damage (five point scale) ([2]; applied at 125 g/ha) | PRE Application SETFA, percentage damage (five point scale) (Setaria faberi (SETFA) [3]; applied at 125 g/ha) | PRE Application ECHCG, percentage damage (five point scale) ([4]; applied at 125 g/ha) | PRE Application IPOHE, percentage damage (five point scale) ([5]; applied at 125 g/ha) | POST Application AMARE, percentage damage (five point scale) ([6]; applied at 125 g/ha) | POST Application ABUTH, percentage damage (five point scale) ([7]; applied at 125 g/ha) | POST Application SETFA, percentage damage (five point scale) (Setaria faberi (SETFA) [8]; applied at 125 g/ha) | POST Application ECHCG, percentage damage (five point scale) ([9]; applied at 125 g/ha) | POST Application IPOHE, percentage damage (five point scale) ([10]; applied at 125 g/ha)

CC(=NOCc1c(S(C)(=O)=O)ccc(C(=O)Nc2nnnn2C)c1Cl)N(C)C [Compound 1.129]
5 (5=80-100%): PRE Application AMARE, percentage damage (five point scale) ([1]; 500 g/h) | PRE Application ABUTH, percentage damage (five point scale) ([2]; 500 g/h) | PRE Application SETFA, percentage damage (five point scale) (Setaria faberi (SETFA) [3]; 500 g/h) | PRE Application ECHCG, percentage damage (five point scale) ([4]; 500 g/h) | PRE Application IPOHE, percentage damage (five point scale) ([5]; 500 g/h) | POST Application AMARE, percentage damage (five point scale) ([6]; 500 g/h) | POST Application ABUTH, percentage damage (five point scale) ([7]; 500 g/h) | POST Application SETFA, percentage damage (five point scale) (Setaria faberi (SETFA) [8]; 500 g/h) | POST Application ECHCG, percentage damage (five point scale) ([9]; 500 g/h) | POST Application IPOHE, percentage damage (five point scale) ([10]; 500 g/h)

CN(/C=N/c1c(C(F)(F)F)ccc(C(=O)Nc2nnnn2C)c1Cl)CC(F)(F)F [Compound 1.130, 2-chloro-N-(1-methyltetrazol-5-yl)-3-[(E)-[methyl(2,2,2-trifluoroethyl)amino]methyleneamino]-4-(trifluoromethyl)benzamide]
5 (5=80-100%): PRE Application AMARE, percentage damage (five point scale) ([1]; 500 g/h) | PRE Application ABUTH, percentage damage (five point scale) ([2]; 500 g/h) | PRE Application SETFA, percentage damage (five point scale) (Setaria faberi (SETFA) [3]; 500 g/h) | PRE Application ECHCG, percentage damage (five point scale) ([4]; 500 g/h) | PRE Application IPOHE, percentage damage (five point scale) ([5]; 500 g/h) | POST Application AMARE, percentage damage (five point scale) ([6]; 500 g/h) | POST Application ABUTH, percentage damage (five point scale) ([7]; 500 g/h) | POST Application SETFA, percentage damage (five point scale) (Setaria faberi (SETFA) [8]; 500 g/h) | POST Application ECHCG, percentage damage (five point scale) ([9]; 500 g/h) | POST Application IPOHE, percentage damage (five point scale) ([10]; 500 g/h)

CN(C=Nc1c(C(F)(F)F)ccc(C(=O)Nc2nnnn2C)c1Cl)c1ccccc1 [Compound 1.131]
5 (5=80-100%): PRE Application AMARE, percentage damage (five point scale) ([1]; 500 g/h) | PRE Application ABUTH, percentage damage (five point scale) ([2]; 500 g/h) | PRE Application SETFA, percentage damage (five point scale) (Setaria faberi (SETFA) [3]; 500 g/h) | PRE Application ECHCG, percentage damage (five point scale) ([4]; 500 g/h) | PRE Application IPOHE, percentage damage (five point scale) ([5]; 500 g/h) | POST Application AMARE, percentage damage (five point scale) ([6]; 500 g/h) | POST Application ABUTH, percentage damage (five point scale) ([7]; 500 g/h) | POST Application SETFA, percentage damage (five point scale) (Setaria faberi (SETFA) [8]; 500 g/h) | POST Application ECHCG, percentage damage (five point scale) ([9]; 500 g/h) | POST Application IPOHE, percentage damage (five point scale) ([10]; 500 g/h)
